Experimental data as given in US20090198145A1, “COMPOSITIONS, METHODS, AND SYSTEMS FOR RAPID INDUCTION AND MAINTENANCE OF […] SLEEP” (priority 2008, published 2009).

Key:
[1] = tested on: rats; conditions: intravenous, over a 6 hour period; cited from earlier work
[2] = tested on: surgical patients; conditions: over 80 patients; GABA-A agonist (e.g., propofol) and adjunctive medications
From the text: This invention describes the discoveries that control, monitor, and administer the hypnotic or sedative agent such as a GABA-A agonist (e.g., propofol) and adjunctive medications at designed dosages, timing, and modes of administration to produce dreams and an unique sleep state of un-fragmented Continuous REM Sleep.

[3] = tested on: patient with chronic depression and post-traumatic stress disorder
[4] = Patient A, same regimen, follow-up

CC(C)c1cccc(C(C)C)c1O [propofol, 2-6 diisopropylphenol]
replication of natural sleep cycle [1]: replicate a natural sleep cycle
achievement of Continuous REM Sleep [2]: achieved Continuous REM Sleep
patient-reported sleep recovery after the procedure ([3]; Patient A, same regimen, Continuous REM Sleep of approximately 1 hour): felt extremely rested
duration of improved ease of sleeping post-operatively [3, 4]: three
nightmares on follow-up [3, 4]: lack of nightmares
dreaming reported during the procedure ([3]; human, in vivo): profuse dreaming about gardening
